According to patent US8613962B2, “Prophylactic or alleviating agent for peripheral nerve disorder induced by anti-cancer agent” (Kyushu University, National University Corporation, priority 2007, dated 2013):

Columns and labels:
[1] = test system: rat peripheral nerve disorder induced by oxaliplatin; details: rats; oxaliplatin alone 4 mg/kg i.p. twice per week; second week; FIG. 5
[2] = test system: rat peripheral nerve disorder induced by oxaliplatin; details: rats; oxaliplatin alone 4 mg/kg i.p.; second week; FIG. 6
[3] = test system: rat peripheral nerve disorder induced by paclitaxel; format: in vivo; details: SD male rats; paclitaxel alone 6 mg/kg i.p. once a week for 4 weeks; FIG. 1
[4] = test system: rat peripheral nerve disorder induced by paclitaxel; format: in vivo; details: SD male rats; paclitaxel alone 6 mg/kg i.p.; FIG. 2
[5] = test system: rat peripheral nerve disorder induced by paclitaxel; format: in vivo; details: rats; paclitaxel alone
Description: 7 and 8-week-old SD male rats were used as experimental animals and separated into three groups of a control group, group administered with paclitaxel, and group administered with paclitaxel and the test substance (group administered with paclitaxel+test substance). To the group administered with paclitaxel, paclitaxel (6 mg/kg) was intraperitoneally administered once a week for 4 weeks in a total of 4 times. To the group administered with paclitaxel+test substance, the test substance (200 NU/kg) was orally administered three times a week, that is, just before the paclitaxel administration and on days 1 and 2 after the paclitaxel administration, for 4 weeks in a total of 12 times. To the control group, a solvent (polyoxyethylene castor oil:ethanol=1:1) used in the paclitaxel administration was similarly administered.

PC12 cells = format: cell-based, rat; details: forskolin-induced, 10 ng/mL paclitaxel only, 168 hours, FIG. 3
DRG cells = format: cell-based, rat; details: 10 ng/mL paclitaxel only, 168 hours, FIG. 4

50% reaction threshold value (von Frey test), compared with control group [3] | latent time to avoidance reaction (acetone test, cold stimuli) [4] | latent time (plantar test, heat stimuli) [5] | neurite outgrowth (neurite length) (PC12 cells) | neurite outgrowth (neurite length) (DRG cells) | SMILES | 50% reaction threshold value (von Frey test), compared with control group [1] | latent time to posterior foot avoidance (cold plate test, 4° C.) [2]
– | – | – | – | – | O=C1[O][Pt]2([NH][C@@H]3CCCC[C@H]3[NH]2)[O]C1=O [oxaliplatin] | remarkably lowered | remarkably shortened
remarkably lowered | remarkably shortened | not shortened | inhibited | inhibited | CC(=O)O[C@H]1C(=O)[C@@]2(C)[C@H]([C@H](OC(=O)c3ccccc3)[C@]3(O)C[C@H](OC(=O)[C@H](O)[C@@H](NC(=O)c4ccccc4)c4ccccc4)C(C)=C1C3(C)C)[C@]1(OC(C)=O)CO[C@@H]1C[C@@H]2O [paclitaxel] | – | –
